Results on one compound are retold here after patent publication US11179384B2, “Treatment of nonalcoholic fatty liver disease” (TAKEDA GMBH, priority 2016, dated 2021).

Common to all, as to assay type: in vivo
In one assay the test system is Homozygous LDLR-KO mice. Kind of assay: Therapeutic effects in a mouse model of NASH (LDLR-KO mice, mCDAA diet, after fibrosis formation). To be noted: 6 weeks mCDAA diet then 4 and 8 mg/kg p.o. QD for 10 weeks (therapeutic). As for the experimental part:
To evaluate therapeutic potential of Compound A, effects of Compound A were additionally examined after hepatic fibrosis formation. Homozygous LDLR-KO mice were fed with chow or mCDAA diet (A08111307, Research Diets, USA). After 6 week under chow or mCDAA diet, the mice were orally dosed with Compound A (4, and 8 mg/5 mL/kg, QD, n=12; suspension in 0.5 w/v % methylcellulose solution) for 10 weeks.

Assay [1] relates to male C57BL/6J mice (high caloric diet). Briefly: Liver lipidosis / liver weight, 8 weeks treatment in diet induced obese (DIO) mice. To be noted: for Liver weight (Day 56) / Grade Liver Lipidosis (mean): high caloric diet; for Liver weight (Day 56): vehicle HD 1.04, SD 0.96; for Grade Liver Lipidosis (mean): day 56, grades 1 minimal to 4 marked, vehicle HD 1.5. An excerpt: Obesity was induced in male C57BL/6J mice (Charles River, Germany; 6 weeks of age weighing 19-20 g at start of study) by feeding a high caloric diet (60% kcal % fat; No. 2127; Provimi-Kliba, Switzerland)) for 7 weeks. Animals were single housed in Makrolon cages type II-Long with free access to food and tap water. When body weight gain exceeded 50% compared to body weight at onset of diet, the animals were randomized according to body weight (day −4) followed by treatment for 8 weeks with daily doses of Compound A (0.3, 1, 3 and 10 mg/kg/day, p.o; dissolved in 4% (w/v) aqueous methocel solution to give the required dose in a volume of 10 mL/kg body weight; n=10 in each group). After 8 weeks of treatment, animals were sacrificed. Liver was removed, weighed and fixed in 4% neutral buffered formalin for 2 days, embedded in paraffine and stained with Hematoxylin-Eosin for histological evaluation. The slides were blinded for histological reading and liver lipidosis was evaluated by light microscopy.
The degree of liver lipidosis was assessed semi-quantitatively by the following grading criteria:
Grade 1 (minimal): small round cytoplasmic vacuoles within hepatocytes
Grade 2 (mild): small to medium sized round cytoplasmic vacuoles within hepatocytes
Grade 3 (moderate): in addition: round cytoplasmic vacuoles, partly forcing the nucleus to the periphery of the cell
Grade 4 (marked): in addition: whole lobe affected
For focal changes or multifocal changes 0.5 or 0.25 were subtracted respectively. The mean severity index was calculated by dividing the sum of all gradings/group by the number of animals/group.

For a further assay, the system named is ob/ob mice. Briefly: Insulin tolerance test (insulin sensitivity) in ob/ob mice. As to conditions: 29 days. As for the experimental part:
Male 5 weeks old ob/ob mice (B6.Cg-Lep^ob/J, genotype: Lep^ob/Leb^ob) and age-matched male lean mice (B6.Cg-Lep^ob/J, genotype: Lep^ob/+ * or Leb^+/+) were purchased from Charles River Laboratories, Japan Inc. All mice were fed with a normal chow (CE-2, CLEA Japan) and allowed free access to tap water. The animals were housed in a room with controlled temperature (23±1° C.), humidity (55±10%) and lightning (lights from 07:00 to 19:00). All experiments were approved by the Institutional Animal Care and Use Committee of Shonan Research Center, Takeda Pharmaceutical Company ltd (Japan).
All mice were housed individually in animal cages and used for the study at 7 weeks of age after 2 weeks of acclimation period. Blood samples were collected from the tail vein. Heparin and 2%-EDTA were used to inhibit the coagulation of the blood. Plasma was obtained by centrifugation. Plasma levels of glucose were measured using the automatic analyzer 7180 (Hitachi, Japan). Vehicle (0.5 w/v % methylcellulose, 10 ml/kg) and Compound A (3 and 10 mg/kg suspended in 0.5% methylcellulose solution) were orally administered once daily. After 28 days of administration, the insulin tolerance test (ITT) was performed. Mice were fasted for 6 h and then intraperitoneally administered with insulin (Novolin R, NovoNordisk) at a dose of 0.5 unit/5 ml/kg. Blood samples were collected from tail vein before and 15, 30, 60 and 120 min after the insulin administration. Plasma glucose (PG) level and ITT were measured using the method described above. […] AUC0-120 min of plasma glucose level was calculated using the following formula; [{(0 min PG)+(15 min PG)}×15+{(15 min PG)+(30 min PG)}×15+{(30 min PG)+(60 min PG)}×30+{(60 min PG)+[…]}×60]/2.
Data are expressed as mean and standard deviation (n=8 for ob/ob mice and n=5 for lean mice). The dose response trends of Compound A were assessed by one-tailed Williams' test or Shirley-Williams test. […] For evaluation of the effects of pioglitazone, statistical differences between vehicle and pioglitazone treated groups were analyzed with Student's t-test or Aspin-Welsh test. […]

A further assay relates to TNFα gene expression. Briefly: Hepatic gene expression in prophylactic NASH mouse model, TNFα (Taqman PCR). To be noted: LDLR-KO mice on mCDAA diet; 1, 3 and 10 mg/kg p.o. QD for 7 weeks; liver mRNA. How it is done:
Homozygous low-density lipoprotein receptor knockout (LDLR-KO) mice were fed with chow or modified choline deficient, L-amino acid-defined (mCDAA) diet (A08111307, Research Diets, USA). After 1 week under chow or mCDAA diet, the mice were orally dosed with Compound A (1, 3 and 10 mg/5 ml/kg, QD, n=10; suspension in 0.5 w/v % methylcellulose suspension) for 7 weeks.
In addition prophylactic effects of Compound A on hepatic gene expression were evaluated. After total RNA was extracted from liver, cDNA was amplified using High-Capacity cDNA Reverse Transcription Kit (ABI 4368813), and target gene mRNA was measured using Taqman PCR. The target gene expression level was normalized by GAPDH.

Where [2] appears, read: 3 and 10 mg/kg p.o. daily, 8 weeks.

Take `CCOc1cc2c(cc1OC)C(c1ccc(=O)n(C)c1)=N[C@@H]1CC[C@@H](O)C[C@H]21` [Compound A, 5-((2R,4aR,10bR)-9-Ethoxy-2-hydroxy-8-methoxy-1,2,3,4,4a,10b-hexahydro-phenanthridin-6-yl)-1-methyl-1H-pyridin-2-one]: the “hepatic TG content” value with Homozygous LDLR-KO mice is “significantly reduced from the initial value”. Also, in the assay with Homozygous LDLR-KO mice, the hepatic fibrosis area result is listed as “reduction”. The “increase in liver weight caused by high caloric diet” value in assay [1] (setting [2]) is “completely abolished”. Also, the liver lipidosis entry in assay [1] (setting [2]) is “almost abolished”. Besides, the “Liver weight (Day 56)” value was determined as 1.08 g in assay [1] (0.3 mg/kg p.o. daily, 8 weeks); 1.01 g in assay [1] (1.0 mg/kg p.o. daily, 8 weeks); 0.96 g in assay [1] (3.0 mg/kg p.o. daily, 8 weeks); 0.95 g in assay [1] (10 mg/kg p.o. daily, 8 weeks). The “Grade Liver Lipidosis (mean)” value in assay [1] (0.3 mg/kg p.o.) stood at 1.4; in assay [1] (1.0 mg/kg p.o.), 0.6; in assay [1] (3.0 mg/kg p.o.) it was 0.3; in assay [1] (10.0 mg/kg p.o.), 0.2. The “insulin-stimulated plasma glucose (PG) reduction at 60 min” value in the assay on ob/ob mice (10 mg/kg/day p.o., ITT insulin 0.5 unit/kg i.p., vs vehicle) is “significantly enhanced”. For the same compound, the “AUC of PG level (AUC0-120 min)” value in the assay with ob/ob mice (3 and 10 mg/kg/day p.o., ITT, statistical significance at 10 mg/kg/day) was “dose-dependently decreased”. The “declines in plasma glucose level at 60 min from the zero time value” in the assay on ob/ob mice (3 and 10 mg/kg/day p.o., ITT, vs vehicle) is recorded as “significantly greater”. Moreover, the “hepatic inflammatory TNFα gene expression (normalized by GAPDH)” value in the assay with TNFα gene expression was “dose-dependent reduction”.
